Here are results for 65 compounds from US20130303535A1, “NOVEL BICYCLIC HETEROCYCLIC COMPOUND” (priority 2008, published 2013).

Structures are written as SMILES.

The target in the first experiment is TTX resistant Na channel of human SNS-expressing cell (SNS) (Homo sapiens, UniProt Q9Y5Y9). Description: cell-based. The conditions noted are these: CHO-K1, compound concentration 12.5 μM; read-out: SNS inhibitory rate (%).
Sequence of TTX resistant Na channel of human SNS-expressing cell (SNS) (Q9Y5Y9 whole entry, looked up): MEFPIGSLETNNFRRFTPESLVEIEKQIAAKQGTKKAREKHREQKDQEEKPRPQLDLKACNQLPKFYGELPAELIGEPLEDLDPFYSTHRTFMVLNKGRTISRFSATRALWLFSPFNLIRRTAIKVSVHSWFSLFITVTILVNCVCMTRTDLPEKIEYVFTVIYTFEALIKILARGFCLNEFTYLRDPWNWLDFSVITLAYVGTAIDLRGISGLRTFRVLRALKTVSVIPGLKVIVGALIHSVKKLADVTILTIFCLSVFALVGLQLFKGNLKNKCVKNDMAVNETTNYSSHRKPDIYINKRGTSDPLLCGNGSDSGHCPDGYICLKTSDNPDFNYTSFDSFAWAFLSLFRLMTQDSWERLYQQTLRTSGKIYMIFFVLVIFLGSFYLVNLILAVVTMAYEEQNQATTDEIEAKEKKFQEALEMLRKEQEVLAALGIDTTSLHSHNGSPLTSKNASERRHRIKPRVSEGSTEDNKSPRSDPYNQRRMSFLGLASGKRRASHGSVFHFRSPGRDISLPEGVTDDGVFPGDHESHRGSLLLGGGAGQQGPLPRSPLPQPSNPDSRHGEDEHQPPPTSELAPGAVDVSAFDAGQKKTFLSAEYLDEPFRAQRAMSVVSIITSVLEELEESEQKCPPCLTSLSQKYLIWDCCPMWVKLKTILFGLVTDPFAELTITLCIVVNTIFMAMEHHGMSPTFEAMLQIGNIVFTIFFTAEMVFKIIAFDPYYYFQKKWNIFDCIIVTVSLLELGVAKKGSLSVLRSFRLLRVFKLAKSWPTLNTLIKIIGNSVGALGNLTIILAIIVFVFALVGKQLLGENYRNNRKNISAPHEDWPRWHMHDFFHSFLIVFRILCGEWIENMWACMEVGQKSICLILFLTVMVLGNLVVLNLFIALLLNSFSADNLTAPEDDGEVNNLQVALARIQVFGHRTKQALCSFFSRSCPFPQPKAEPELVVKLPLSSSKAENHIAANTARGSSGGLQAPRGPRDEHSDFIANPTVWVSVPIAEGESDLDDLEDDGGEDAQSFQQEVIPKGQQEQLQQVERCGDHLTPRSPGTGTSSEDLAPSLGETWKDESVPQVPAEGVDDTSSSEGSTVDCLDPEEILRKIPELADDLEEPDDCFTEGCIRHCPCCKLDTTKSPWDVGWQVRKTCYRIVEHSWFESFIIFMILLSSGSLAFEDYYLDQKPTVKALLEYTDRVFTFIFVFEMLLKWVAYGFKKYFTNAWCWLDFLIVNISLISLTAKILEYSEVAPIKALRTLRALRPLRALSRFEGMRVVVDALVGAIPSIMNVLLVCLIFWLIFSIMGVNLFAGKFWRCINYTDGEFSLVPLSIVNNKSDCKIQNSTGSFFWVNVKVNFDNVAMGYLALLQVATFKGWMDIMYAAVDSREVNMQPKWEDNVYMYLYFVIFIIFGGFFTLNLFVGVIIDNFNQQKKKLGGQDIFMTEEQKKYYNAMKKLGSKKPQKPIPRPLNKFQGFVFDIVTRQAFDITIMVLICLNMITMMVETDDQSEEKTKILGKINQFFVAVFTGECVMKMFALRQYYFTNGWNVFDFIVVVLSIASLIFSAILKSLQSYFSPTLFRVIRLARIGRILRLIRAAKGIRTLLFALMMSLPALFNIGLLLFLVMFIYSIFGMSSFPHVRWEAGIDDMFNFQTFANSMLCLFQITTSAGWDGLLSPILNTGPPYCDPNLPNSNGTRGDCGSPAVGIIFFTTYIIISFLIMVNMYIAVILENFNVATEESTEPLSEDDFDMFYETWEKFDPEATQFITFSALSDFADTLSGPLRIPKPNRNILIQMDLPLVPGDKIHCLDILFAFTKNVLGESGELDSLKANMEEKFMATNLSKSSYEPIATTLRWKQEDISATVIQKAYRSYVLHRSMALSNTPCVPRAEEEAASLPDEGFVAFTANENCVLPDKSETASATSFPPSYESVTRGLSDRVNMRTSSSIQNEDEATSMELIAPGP
In the case of `CCOCCn1c(CN[C@@H](C)C(N)=O)nc2cc(C(F)(F)F)c(-c3ccc(F)cc3)cc21` [Example 115, N^2-{[1-(2-ethoxyethyl)-6-(4-fluorophenyl)-5-(trifluoromethyl)-1H-benzimidazol-2-yl]methyl}-L-alaninamide], the inhibition at 12.5 µM was 3.5%.
Consider `C[C@H](NCc1nc2cc(F)c(-c3ccc(F)cc3)cc2n1C1CCOCC1)C(N)=O` [Example 116, N^2-{[5-fluoro-6-(4-fluorophenyl)-1-(tetrahydro-2H-pyran-4-yl)-1H-benzimidazol-2-yl]methyl}-L-alaninamide], for which the inhibition at 12.5 µM is 33.2%.
The same measure, in the same setting: in the case of `C[C@H](NCc1nc2ccc(Oc3ccc(F)cc3)cc2n1CCO)C(N)=O` [Example 117, N^2-{[6-(4-fluorophenoxy)-1-(2-hydroxyethyl)-1H-benzimidazol-2-yl]methyl}-L-alaninamide] it was 78.8%; in that of `CCOCCn1c(CN[C@@H](C)C(N)=O)nc2cc(Cl)c(Oc3ccc(F)cc3)cc21` [Example 118, N^2-{[5-chloro-1-(2-ethoxyethyl)-6-(4-fluorophenoxy)-1H-benzimidazol-2-yl]methyl}-L-alaninamide], 64.5%; in that of `Cc1ccc(Oc2ccc3nc(CN[C@@H](C)C(N)=O)n(C[C@@H]4CCCO4)c3c2)cc1` [Example 119], 87.2%.
Still for that read-out and setting: in the case of `C[C@H](NCc1nc2ccc(Oc3ccc(OC(F)(F)F)cc3)cc2n1C[C@@H]1CCCO1)C(N)=O` [Example 120] it was 92.4%; in that of `C[C@H](NCc1nc2ccc(Oc3ccc(F)cc3F)cc2n1C[C@@H]1CCCO1)C(N)=O` [Example 121], 94.3%.
Same read-out and setting: in the case of `COCCCn1c(CN[C@@H](C)C(N)=O)nc2ccc(Oc3ccc(F)c(F)c3)cc21` [Example 122] it was 100%; in that of `COCCCn1c(CN[C@@H](C)C(N)=O)nc2ccc(Oc3ccc(F)cc3F)cc21` [Example 123], 96.8%.
As for `C[C@H](NCc1nc2ccc(Oc3ccc(F)c(F)c3)cc2n1C[C@H]1CCCO1)C(N)=O` [Example 124], the inhibition at 12.5 µM turned out to be 87.8%.
The same measure, in the same setting: in the case of `C[C@H](NCc1nc2ccc(Oc3ccc(F)cc3F)cc2n1C[C@H]1CCCO1)C(N)=O` [Example 125] it was 95.9%; in that of `COCCCn1c(CN[C@@H](C)C(N)=O)nc2ccc(Oc3ccc(C)cc3)cc21` [Example 126], 56.9%.
`COCCCn1c(CN[C@@H](C)C(N)=O)nc2ccc(Oc3ccc(OC(F)(F)F)cc3)cc21` [Example 127]: the inhibition at 12.5 µM came out at 93.9%.
The same measure, in the same setting: in the case of `C[C@H](NCc1nc2ccc(Oc3ccc(F)c(F)c3)cc2n1C1CCOCC1)C(N)=O` [Example 128] it was 85%; in that of `Cc1ccc(Oc2ccc3nc(CN[C@@H](C)C(N)=O)n(C4CCOCC4)c3c2)cc1` [Example 129], 90.3%.
Still for that read-out and setting: in the case of `C[C@H](NCc1nc2ccc(Oc3ccc(OC(F)(F)F)cc3)cc2n1C1CCOCC1)C(N)=O` [Example 130] it was 42.1%; in that of `Cc1ccc(Oc2ccc3nc(CN[C@@H](C)C(N)=O)n(C[C@H]4CCCO4)c3c2)cc1` [Example 131], 55.9%.
Same read-out and setting: in the case of `C[C@H](NCc1nc2ccc(Oc3ccc(OC(F)(F)F)cc3)cc2n1C[C@H]1CCCO1)C(N)=O` [Example 132] it was 86.4%; in that of `C[C@H](NCc1nc2ccc(Oc3ccc(OC(F)(F)F)cc3)cc2n1CCCO)C(N)=O` [Example 133], 91.7%.
With `C[C@H](NCc1nc2ccc(Oc3ccc(OC(F)(F)F)cc3)cc2n1CCO)C(N)=O` [Example 134], the inhibition at 12.5 µM worked out at 95.7%.
On the same count and under the same terms, in the case of `CCn1c(CNC(C)(C)C(N)=O)nc2ccc(Oc3ccc(C)cc3)cc21` [Example 135] it was 57.8%; in that of `CC(C)(NCc1nc2ccc(Oc3ccc(F)cc3)cc2n1C1CC1)C(N)=O` [Example 136], 28.7%.
Still for that read-out and setting: in the case of `CC(C)(NCc1nc2ccc(Oc3ccc(F)cc3F)cc2n1C[C@@H]1CCCO1)C(N)=O` [Example 137] it was 90.7%; in that of `CCn1c(CNC(C)(C)C(N)=O)nc2ccc(Oc3ccc(F)cc3)cc21` [Example 138], 93.1%; in that of `CCn1c(CN[C@@H](C)C(N)=O)nc2ccc(Oc3ccc(F)cc3)cc21` [Example 139], 96%.
Still for that read-out and setting: in the case of `Cc1ccc(Oc2ccc3nc(CNC(C)(C)C(N)=O)n(C4CCOCC4)c3c2)cc1` [Example 140] it was 97.5%; in that of `CCOCCn1c(CNC(C)(C)C(N)=O)nc2ccc(Oc3ccc(F)c(F)c3)cc21` [Example 141], 90.3%; in that of `COCCCn1c(CNC(C)(C)C(N)=O)nc2ccc(Oc3ccc(C)cc3)cc21` [Example 142], 47.9%.
In the case of `CC(C)(NCc1nc2ccc(Oc3ccc(F)cc3)cc2n1CCO)C(N)=O` [Example 143], the inhibition at 12.5 µM came to 27.7%.
Same read-out and setting: in the case of `CCOCCn1c(CN[C@@H](C)C(N)=O)nc2ccc(-c3ccc(C)cc3)cc21` [Example 144] it was 6.1%.
On to `CCOCCn1c(CN[C@@H](C)C(N)=O)nc2ccc(-c3ccc(OC(F)(F)F)cc3)cc21` [Example 145], for which the inhibition at 12.5 µM was 1.3%.
Turning to `CCOCCn1c(CN[C@@H](C)C(N)=O)nc2ccc(-c3ccc(C(F)(F)F)cc3)cc21` [Example 146], the inhibition at 12.5 µM came to 19.7%.
On the same count and under the same terms, in the case of `CCOCCn1c(CN[C@@H](C)C(N)=O)nc2ccc(-c3ccc(F)cc3F)cc21` [Example 147] it was 23.5%; in that of `CCOCCn1c(CN[C@@H](C)C(N)=O)nc2ccc(-c3ccc(F)c(F)c3)cc21` [Example 148], 17%.
On to `CCOCCn1c(CNC(C)(C)C(N)=O)nc2ccc(-c3ccc(F)cc3)cc21` [Example 149], for which the inhibition at 12.5 µM was 30.6%.
As to `CCOCCn1c(CN[C@@H](CC)C(N)=O)nc2ccc(-c3ccc(F)cc3)cc21` [Example 150], the inhibition at 12.5 µM is 45.6%.
With `CCOCCn1c(CN[C@H](C(N)=O)C(C)C)nc2ccc(-c3ccc(F)cc3)cc21` [Example 151], the inhibition at 12.5 µM amounted to 26.6%.
On the same count and under the same terms, in the case of `CCOCCn1c(CN[C@@H](C)C(N)=O)nc2ccc(-c3cccc(C)c3)cc21` [Example 152] it was 8.9%; in that of `CCOCCn1c(CN[C@@H](C)C(N)=O)nc2ccc(-c3ccccc3C)cc21` [Example 153], 28.5%.
On to `CCn1c(CNC(C)(C)C(N)=O)nc2ccc(-c3ccc(F)cc3)cc21` [Example 154], for which the inhibition at 12.5 µM was 11.2%.
Same read-out and setting: in the case of `CCOCCn1c(CN[C@@H](C)C(N)=O)nc2ccc(-c3ccc(F)cc3Cl)cc21` [Example 155] it was 86.1%.
As for `CCOCCn1c(CNC(C)(C)C(N)=O)nc2ccc(-c3ccc(F)cc3Cl)cc21` [Example 156], the inhibition at 12.5 µM is 71.2%.
The same measure, in the same setting: in the case of `CCOCCn1c(CN[C@@H](C)C(N)=O)nc2ccc(-c3ccc(F)cc3C)cc21` [Example 157] it was 89.9%; in that of `CCOCCn1c(CNC(C)(C)C(N)=O)nc2ccc(-c3ccc(F)cc3C)cc21` [Example 158], 86.1%.
For the compound `CCOCCn1c(CN[C@@H](C)C(N)=O)nc2ccc(-c3ccc(C)cc3C)cc21` [Example 159], the inhibition at 12.5 µM amounted to 96.1%.
In the case of `CCOCCn1c(CNC(C)(C)C(N)=O)nc2ccc(-c3ccc(C)cc3C)cc21` [Example 160], the inhibition at 12.5 µM came to 97%.
On the same count and under the same terms, in the case of `CCOCCn1c(CN[C@@H](C)C(N)=O)nc2ccc(-c3ccc(C)c(C)c3)cc21` [Example 161] it was 76.2%; in that of `CCOCCn1c(CNC(C)(C)C(N)=O)nc2ccc(-c3ccc(C)c(C)c3)cc21` [Example 162], 67.3%.
On the same count and under the same terms, in the case of `CCOCCn1c(CN[C@@H](CC)C(N)=O)nc2ccc(-c3ccc(C)c(C)c3)cc21` [Example 163] it was 36.5%; in that of `CCOCCn1c(CN[C@@H](C)C(N)=O)nc2ccc(-c3c(C)cc(C)cc3C)cc21` [Example 164], 3.7%.
Turning to `CCOCCn1c(CN[C@@H](C)C(N)=O)nc2ccc(-c3ccc(C)cc3F)cc21` [Example 165], the inhibition at 12.5 µM came to 100%.
The same measure, in the same setting: in the case of `CCOCCn1c(CNC(C)(C)C(N)=O)nc2ccc(-c3ccc(C)cc3F)cc21` [Example 166] it was 62.7%.
Turning to `CCOCCn1c(CN[C@@H](C)C(N)=O)nc2ccc(-c3ccc(F)c(C)c3)cc21` [Example 167], the inhibition at 12.5 µM came out at 82.8%.
The same measure, in the same setting: in the case of `CCOCCn1c(CNC(C)(C)C(N)=O)nc2ccc(-c3ccc(F)c(C)c3)cc21` [Example 168] it was 20.2%; in that of `CCOCCn1c(CN[C@@H](C)C(N)=O)nc2ccc(-c3ccc(C)c(F)c3)cc21` [Example 169], 68.1%; in that of `CCOCCn1c(CNC(C)(C)C(N)=O)nc2ccc(-c3ccc(C)c(F)c3)cc21` [Example 170], 14.2%.
The same measure, in the same setting: in the case of `CCOCCn1c(CN[C@@H](C)C(N)=O)nc2ccc(-c3cccc(F)c3F)cc21` [Example 171] it was 38.3%; in that of `CCOCCn1c(CN[C@@H](C)C(N)=O)nc2ccc(-c3ccc(F)cc3OC)cc21` [Example 172], 50.9%; in that of `CCOCCn1c(CN[C@@H](C)C(N)=O)nc2ccc(-c3ccc(F)c(OC)c3)cc21` [Example 173], 27.1%.
Same read-out and setting: in the case of `CCOCCn1c(CNC(C)(C)C(N)=O)nc2ccc(-c3ccc(F)cc3OC)cc21` [Example 174] it was 33.4%; in that of `CCOCCn1c(CNC(C)(C)C(N)=O)nc2ccc(-c3ccc(F)c(OC)c3)cc21` [Example 175], 5.9%; in that of `CCOCCn1c(CN[C@@H](C)C(N)=O)nc2cc(Cl)c(-c3ccccc3)cc21` [Example 177], 22.5%.
As to `CCOCCn1c(CN[C@@H](C)C(N)=O)nc2cc(Cl)c(-c3ccc(C)cc3)cc21` [Example 178], the inhibition at 12.5 µM was 16%.
On the same count and under the same terms, in the case of `CCOCCn1c(CN[C@@H](C)C(N)=O)nc2cc(Cl)c(-c3ccc(F)cc3F)cc21` [Example 179] it was 67.4%.

Still in this experiment, the particulars now being: compound concentration 12.5 μM.
Take `CCOCCn1c(CN[C@@H](C)C(N)=O)nc2cc(Cl)c(-c3ccc(F)cc3)cc21` [Example 176]: the “SNS inhibitory rate (%)” value came to 68.8%.
